Data published in ChEMBL document CHEMBL1159199, “A new antiplatelet diarylheptanoid from Alpinia blepharocalyx” (1998).

How the values were obtained:
Assay type in all cases: functional
[1] = Antiplatelet activity in human whole blood assessed as inhibition of arachidonic acid-induced platelet aggregation at 100 ug/mL relative to control
[2] = Antiplatelet activity in human whole blood assessed as inhibition of ADP-induced platelet aggregation at 100 ug/mL relative to control
[3] = Antiplatelet activity in human whole blood assessed as inhibition of ristocetin-induced platelet aggregation at 100 ug/mL relative to control
[4] = Antiplatelet activity in human whole blood assessed as inhibition of collagen-induced platelet aggregation at 100 ug/mL relative to control

| Structure (SMILES) | inhibition at 100 µg/mL [1] | inhibition at 100 µg/mL [2] | inhibition at 100 µg/mL [3] | inhibition at 100 µg/mL [4] |
| --- | --- | --- | --- | --- |
| O=C(/C=C(O)/C=C/c1ccc(O)cc1)CCc1ccc(O)cc1 | 100% | 100% | 62.8% | 77.3% |
| COc1cc(/C=C/c2ccc(O)cc2)oc(=O)c1 | 100% | 100% | 100% | 86.9% |
| COc1cc(O)cc2c1C(=O)CC(c1ccc(O)cc1)O2 (stereo unspecified) | 26.2% | 14.5% | 37.2% | 57.7% |
| O=Cc1ccc(O)cc1 [4-HYDROXYBENZALDEHYDE] | 5.4% | 39.8% | 11% | 23.6% |
| O=C(/C=C/c1ccc(O)cc1)CC(=O)/C=C/c1ccc(O)cc1 [BISDEMETHOXYCURCUMIN] | 46.8% | 35.4% | 38.3% | 76.3% |
| COc1cc(O)cc(O)c1C(=O)/C=C/c1ccccc1 [CARDAMOMIN] | 100% | 62.9% | 0% | 56% |
| COc1cc(/C=C/c2ccccc2)oc(=O)c1 [DESMETHOXYYANGONIN] | 100% | 43.8% | 33.3% | 48.9% |
| COc1cc(O)cc(O)c1C(=O)/C=C/c1ccc(O)cc1 [HELICHRYSETIN] | 100% | 48.9% | 63.8% | 32.3% |
| COc1ccc2c(c1)c(CC(=O)O)c(C)n2C(=O)c1ccc(Cl)cc1 [INDOMETHACIN] | 100% | 36.7% | 52.1% | 71.1% |
